Results: PubChem BioAssay (NCI)
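Interpolation was linear, between the two tested concentrations surrounding the appropriate level; five concentrations were tested over 48 hours in 96-well plates. The concentration for 50% growth inhibition is given as GI50. At the TGI there is no net growth.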

Legend:
Experiment in all cases: inhibition of tumour cell growth, NCI panel, 48 h
[1] = tested on: LOX IMVI melanoma
[2] = tested on: A498 renal
[3] = tested on: CAKI-1 renal
[4] = tested on: HCC-2998 colon
[5] = tested on: UACC-257 melanoma
[6] = tested on: OVCAR-3 ovarian
[7] = tested on: SF-268 CNS
[8] = tested on: HCT-15 colon
[9] = tested on: COLO 205 colon
[10] = tested on: MOLT-4 leukemia

Compound | GI50 [1] [µM] | TGI [1] [µM] | GI50 [2] [µM] | TGI [2] [µM] | GI50 [3] [µM] | TGI [3] [µM] | GI50 [4] [µM] | TGI [4] [µM] | GI50 [5] [µM] | TGI [5] [µM] | GI50 [6] [µM] | TGI [6] [µM] | GI50 [7] [µM] | TGI [7] [µM] | GI50 [8] [µM] | TGI [8] [µM] | GI50 [9] [µM] | TGI [9] [µM] | TGI [10] [µM] | GI50 [10] [µM]
Cc1cn(Cc2ccccc2CCl)c(=O)n(Cc2ccccc2CCl)c1=O | 1.16 | 2.59 | 10.6 | 27.4 | 1.86 | 3.3 | 1.5 | 2.95 | 2.25 | 4.86 | 1.85 | 3.65 | 2.32 | 5.99 | 1.96 | 4.43 | 1.53 | 3.54 | – | –
COC(=O)c1nc(N)nc(C(=O)OC)c1C(=O)c1ccccc1 | – | > 100 | – | > 100 | – | – | – | > 100 | – | > 100 | – | > 100 | – | > 100 | – | > 100 | – | – | > 100 | –
COc1ccc(/C(C#N)=C(/N)SCc2ccccc2Cl)cc1 | – | 29 | – | 42.3 | – | – | – | 31.7 | – | 33.7 | – | 24.3 | – | 33.2 | – | – | – | 41.6 | 85.2 | –
COC1(Cc2ccccc2)C(=O)c2ccccc2N1C(C)=O (stereo unspecified) | – | – | – | > 100 | – | > 100 | – | > 100 | – | > 100 | – | > 100 | – | – | – | > 100 | – | > 100 | > 100 | –
CCOC(=O)c1cn(CC)c2cc3c(cc2c1=O)SCS3 | – | > 100 | – | – | – | > 100 | – | > 100 | – | > 100 | – | > 100 | – | > 100 | – | > 100 | – | > 100 | > 100 | –
CCCCCCCCCCCCCCCCCc1nnc(N)o1 | – | > 100 | – | – | – | > 100 | – | > 100 | – | > 100 | – | > 100 | – | > 100 | – | > 100 | – | > 100 | > 100 | –
[O-][n+]1c2cc(CN3CCOCC3)c(CN3CCOCC3)cc2[n+]([O-])c2c(O)cccc21 | – | 16.3 | – | 31.5 | – | > 23.9 | – | – | – | 16.3 | – | 13 | – | 3.6 | – | 8.14 | – | 11.1 | 3.05 | –
COc1ccc(OC)c(/C=N/N=C2\C(=O)Nc3c(Cl)cc(Cl)cc32)c1 | – | > 100 | – | > 100 | – | > 100 | – | > 100 | – | > 100 | – | > 100 | – | – | – | > 100 | – | > 100 | > 100 | –
O=c1[nH]c2c(c3ccccc13)CCc1ccccc1-2 | – | – | – | – | – | > 100 | – | > 100 | – | > 100 | – | > 100 | – | > 100 | – | > 100 | – | > 100 | > 100 | –
COc1cc2c(Cc3cc(OCc4ccccc4)ccc3N)nccc2c(OC)c1OC | – | > 10 | – | – | – | – | – | > 10 | – | > 10 | – | > 10 | – | > 10 | – | > 10 | – | > 10 | > 10 | –
CN(C)CC1=Nc2cccc3cccc(c23)N1 | – | 37.3 | – | 28.2 | – | 38.6 | – | 32.3 | – | 31 | – | 30.5 | – | 33.4 | – | 77.5 | – | 7.11 | – | –
COc1ccc2c(c1OC)C(=O)O[C@@H]2[C@H]1c2c(c(Br)c3c(c2OC)OCO3)CCN1C | 6 | > 100 | 27.6 | > 100 | 4.22 | 37.5 | – | – | 7.76 | > 100 | 10.6 | 40.8 | 18 | > 100 | 4.67 | > 100 | 27.1 | > 100 | > 100 | 4.09
O=c1cc(-c2ccc(O)cc2)oc2cc(O)cc(O)c12 | – | 86.6 | – | – | – | – | – | 56.8 | – | 73.9 | – | 91.9 | – | 83.9 | – | > 100 | – | > 100 | 88.4 | –
Cc1cccc(N=C2NC(=O)C(CC(=O)Nc3ccccc3Cl)S2)c1 (stereo unspecified) | – | > 100 | – | > 100 | – | > 100 | – | > 100 | – | > 100 | – | > 100 | – | > 100 | – | > 100 | – | – | > 100 | –
CC(=O)O[C@H]1CC[C@@]2(C)C(=C/C(=N\[N+](=O)[O-])[C@H]3C4CCC([C@H](C)CCCC(C)C)[C@@]4(C)CCC32)C1 (stereo partly specified) | – | > 100 | – | > 100 | – | > 100 | – | – | – | > 100 | – | > 100 | – | > 100 | – | > 100 | – | > 100 | > 100 | –
Cc1ccccc1NC(=O)c1cc2ccccc2cc1O | 3.26 | > 100 | – | – | 2.01 | 5.87 | 4.4 | 26.2 | 3.52 | 16.2 | 2.56 | 7.77 | 3.68 | > 100 | 3.84 | > 100 | 13.8 | 28.6 | > 100 | 3.98
CC1=NN(c2ccccc2)C(=O)C1N=Nc1ccc(S(N)(=O)=O)cc1 (stereo unspecified) | – | > 100 | – | > 100 | – | > 100 | – | – | – | > 100 | – | > 100 | – | > 100 | – | > 100 | – | > 100 | > 100 | –
O=C1NC(c2ccccc2)N=C2Oc3ccccc3C=C12 (stereo unspecified) | – | > 31.6 | – | > 81.8 | – | 0.42 | – | 0.238 | – | > 100 | – | > 100 | – | > 84.7 | – | > 100 | – | – | > 100 | –
O=C(O)c1cc(=O)c2cc(C(=O)c3cccs3)c(Cl)c(Cl)c2o1 | – | – | – | > 100 | – | > 100 | – | > 100 | – | > 100 | – | > 100 | – | > 100 | – | – | – | – | > 100 | –
O=C(O)C1CC2CC(=O)C1C2 (stereo unspecified) | – | > 100 | – | > 100 | – | > 100 | – | – | – | > 100 | – | > 100 | – | > 100 | – | – | – | > 100 | > 100 | –
NNC(=S)N/N=C(/C(=O)Nc1ccc([N+](=O)[O-])cc1)c1nc2ccc([N+](=O)[O-])cc2[nH]c1=O | – | > 100 | – | > 100 | – | > 100 | – | > 100 | – | > 100 | – | – | – | > 100 | – | > 100 | – | > 100 | > 100 | –
NC(=O)N/N=C(\CCC(=O)N(Cc1ccccc1)Cc1ccccc1)CC(=O)c1ccc(F)cc1 | – | > 100 | – | – | – | > 100 | – | > 100 | – | > 100 | – | > 100 | – | > 100 | – | > 100 | – | > 100 | > 100 | –
